Source: ChEMBL document CHEMBL5352438, “Discovery of Pyrrolo[2,3-d]pyrimidine derivatives as potent and selective colony stimulating factor 1 receptor kinase inhibitors” (Eur J Med Chem, 2022)

Tests used:
[1] = in vivo; conditions: Sprague-Dawley, rat, iv, 1 mg/kg
[2] = in vivo; conditions: Sprague-Dawley, rat, po, 10 mg/kg
[3] = in vivo; conditions: Sprague-Dawley, rat, iv, 1 mg/kg; remark: listed apart in the source
[4] = in vivo; conditions: Sprague-Dawley, rat, po, 10 mg/kg; remark: listed apart in the source
[5] = in vivo; conditions: Sprague-Dawley, rat, iv, 1 mg/kg; remark: listed apart in the source
[6] = in vivo; conditions: Sprague-Dawley, rat, iv, 1 mg/kg; remark: listed apart in the source
[7] = in vivo; conditions: Sprague-Dawley, rat, po, 10 mg/kg; remark: listed apart in the source
[8] = in vivo; conditions: Sprague-Dawley, rat, po, 10 mg/kg; remark: listed apart in the source

## Cn1ccc2c(Oc3ccc(NC(=O)Cc4ccc(C(F)(F)F)c(F)c4)cc3)ncnc21
[1]
  Cmax at 12 h: 1430 ng/mL
[2]
  Cmax at 12 h: 1190 ng/mL
[3]
  AUC(0-inf) at 12 h: 1310 ng·h/mL
[4]
  AUC(0-inf) at 12 h: 14600 ng·h/mL
[5]
  Vd at 12 h: 1.55 L/kg
[6]
  clearance at 12 h: 13.3 mL/min/kg
[7]
  CL/F at 12 h: 11.6 mL/min/kg
[8]
  bioavailability at 12 h: 111%
